Data published in patent US11707440B2 (priority 2017, dated 2023).
Where two headings read alike, the source gives them in different places.

What was measured:
[1] = test system: subjects with MDD at imminent risk for suicide
[2] = test system: subjects with MDD at imminent risk for suicide; experiment: Sustained response, response and remission based on MADRS, […]2001; type: in vivo, human; conditions: at least 50 percent reduction from baseline with onset on Day 1 maintained through Day 25; ITT analysis set
Source text: • a. Changes from baseline to Day 2 and Day 25 for the MADRS total score • b. Changes from baseline to Day 1 4-hours postdose, Day 2 and Day 25 for the MADRS Suicide Item • c. Changes from baseline to Day 1 4-hours postdose, Day 2, and Day 25 for the clinical global judgment of suicide risk from the Suicide Ideation and Behavior Assessment Tool (SIBAT) • d. Sustained response (Onset of Clinical Response) defined as at least 50% reduction from baseline in MADRS total score with onset on Day 1 that is maintained through the end of the double-blind phase (Day 25) • e. Changes from baseline to Day 1 4-hours postdose, Day 2, and Day 25 for the Beck Scale for Suicidal Ideation (BSS) • f. Changes from baseline to Day 1 4-hours postdose and Day 25 for the Beck Hopelessness Scale
Sustained response is defined as at least 50% reduction from baseline in MADRS total score with onset on Day 1: 4 hours postdose that is maintained through the end of the double-blind phase (Day 25). Four subjects in the esketamine 84 mg group and 2 subjects in the placebo group had sustained response throughout the double-blind phase.

[3] = test system: subjects with MDD at imminent risk for suicide; experiment: MADRS total score, study […]2001; type: in vivo, human; conditions: ITT analysis set; for MADRS total score change, Diff. of LS Means (SE) minus placebo: ANCOVA LOCF
Source text: Primary efficacy variable/Primary Time point: Change from baseline (Day 1, predose) to Day 1, 4-hours postdose in MADRS total score. The MADRS consists of 10 items that cover all of the core depressive symptoms, with each item scoring from 0 (item is not present or is normal) to 6 (severe or continuous presence of the symptom). A higher score represents a more severe condition.
The primary efficacy endpoint is the change in MADRS total score from baseline to Day 1: 4-hours postdose. MADRS total scores range from 0 to 60. […] As this is a phase 2a proof-of-concept study, statistical significance is based on a two-sided alpha level of 0.20. All p-values presented in this document are two-sided.

[4] = adverse events, follow up phase, safety (FU) analysis set
[5] = double-blind phase, safety analysis set
[6] = serious adverse events, follow up phase, safety (FU) analysis set
[7] = treatment-emergent serious adverse events, double-blind phase, safety analysis set

**Q.** How did the Cellulitis [1, 4] turn out when `CN[C@]1(c2ccccc2Cl)CCCCC1=O` [Esketamine 84 mg] was run?
**A.** 0 no. subjects (%)

**Q.** What about the Cogwheel rigidity [1, 4] of the same molecule?
**A.** 1 (3.7%) no. subjects (%)

**Q.** What about the Contusion [1, 4] of the same molecule?
**A.** 1 (3.7%) no. subjects (%)

**Q.** And the Depressed mood [1, 4]?
**A.** 0 no. subjects (%)

**Q.** And the Depression [1, 4]?
**A.** 1 (3.7%) no. subjects (%)

**Q.** What about the Diarrhea [1, 4] of the same molecule?
**A.** 1 (3.7%) no. subjects (%)

**Q.** And the Dizziness [1, 4]?
**A.** 1 (3.7%) no. subjects (%)

**Q.** And the Drug hypersensitivity [1, 4]?
**A.** 0 no. subjects (%)

**Q.** What about the Dry mouth [1, 4] of the same molecule?
**A.** 2 (7.4%) no. subjects (%)

**Q.** What about the Dysgeusia [1, 4] of the same molecule?
**A.** 1 (3.7%) no. subjects (%)

**Q.** And the “Ear and labyrinth disorders” value [1, 4]?
**A.** 0 no. subjects (%)

**Q.** What about the Ear infection [1, 4] of the same molecule?
**A.** 1 (3.7%) no. subjects (%)

**Q.** What about the Epistaxis [1, 4] of the same molecule?
**A.** 1 (3.7%) no. subjects (%)

**Q.** And the Flank pain [1, 4]?
**A.** 1 (3.7%) no. subjects (%)

**Q.** And the Folliculitis [1, 4]?
**A.** 0 no. subjects (%)

**Q.** And the Gastrointestinal disorders [1, 4]?
**A.** 6 (22.2%) no. subjects (%)

**Q.** What about the Headache [1, 4] of the same molecule?
**A.** 2 (7.4%) no. subjects (%)

**Q.** What about the Immune system disorders [1, 4] of the same molecule?
**A.** 0 no. subjects (%)

**Q.** What about the Infections and infestations [1, 4] of the same molecule?
**A.** 3 (11.1%) no. subjects (%)

**Q.** What about the Influenza [1, 4] of the same molecule?
**A.** 0 no. subjects (%)

**Q.** And the “Injury, poisoning and procedural complications” value [1, 4]?
**A.** 2 (7.4%) no. subjects (%)

**Q.** And the Insomnia [1, 4]?
**A.** 3 (11.1%) no. subjects (%)

**Q.** And the Intentional self-injury [1, 4]?
**A.** 1 (3.7%) no. subjects (%)

**Q.** And the Loss of consciousness [1, 4]?
**A.** 1 (3.7%) no. subjects (%)

**Q.** And the “Meniere's disease” value [1, 4]?
**A.** 0 no. subjects (%)

**Q.** What about the “Metabolism and nutrition disorders” value [1, 4] of the same molecule?
**A.** 0 no. subjects (%)

**Q.** What about the Migraine [1, 4] of the same molecule?
**A.** 1 (3.7%) no. subjects (%)

**Q.** What about the “Musculoskeletal and connective tissue disorders” value [1, 4] of the same molecule?
**A.** 2 (7.4%) no. subjects (%)

**Q.** What about the Musculoskeletal chest pain [1, 4] of the same molecule?
**A.** 1 (3.7%) no. subjects (%)

**Q.** And the Musculoskeletal pain [1, 4]?
**A.** 1 (3.7%) no. subjects (%)

**Q.** And the Nasal congestion [1, 4]?
**A.** 1 (3.7%) no. subjects (%)

**Q.** What about the Nasopharyngitis [1, 4] of the same molecule?
**A.** 1 (3.7%) no. subjects (%)

**Q.** And the Nausea [1, 4]?
**A.** 0 no. subjects (%)

**Q.** What about the Neck pain [1, 4] of the same molecule?
**A.** 1 (3.7%) no. subjects (%)

**Q.** And the Nervous system disorders [1, 4]?
**A.** 6 (22.2%) no. subjects (%)

**Q.** And the Night sweats [1, 4]?
**A.** 1 (3.7%) no. subjects (%)

**Q.** And the Panic reaction [1, 4]?
**A.** 0 no. subjects (%)

**Q.** What about the Pelvic pain [1, 4] of the same molecule?
**A.** 1 (3.7%) no. subjects (%)

**Q.** And the Pharyngitis [1, 4]?
**A.** 2 (7.4%) no. subjects (%)

**Q.** And the Polydipsia [1, 4]?
**A.** 0 no. subjects (%)

**Q.** What about the Procedural pain [1, 4] of the same molecule?
**A.** 0 no. subjects (%)

**Q.** And the Psychiatric disorders [1, 4]?
**A.** 5 (18.5%) no. subjects (%)

**Q.** And the Rash [1, 4]?
**A.** 0 no. subjects (%)

**Q.** And the “Renal and urinary disorders” value [1, 4]?
**A.** 0 no. subjects (%)

**Q.** What about the Renal failure [1, 4] of the same molecule?
**A.** 0 no. subjects (%)

**Q.** What about the “Reproductive system and breast disorders” value [1, 4] of the same molecule?
**A.** 1 (3.7%) no. subjects (%)

**Q.** What about the “Respiratory, thoracic and mediastinal disorders” value [1, 4] of the same molecule?
**A.** 2 (7.4%) no. subjects (%)

**Q.** What about the Restlessness [1, 4] of the same molecule?
**A.** 1 (3.7%) no. subjects (%)

**Q.** And the Road traffic accident [1, 4]?
**A.** 1 (3.7%) no. subjects (%)

**Q.** And the Sedation [1, 4]?
**A.** 1 (3.7%) no. subjects (%)

**Q.** And the Self-injurious ideation [1, 4]?
**A.** 0 no. subjects (%)

**Q.** And the Sexual dysfunction [1, 4]?
**A.** 0 no. subjects (%)

**Q.** And the “Skin and subcutaneous tissue disorders” value [1, 4]?
**A.** 1 (3.7%) no. subjects (%)

**Q.** What about the Somnolence [1, 4] of the same molecule?
**A.** 0 no. subjects (%)

**Q.** And the Suicidal ideation [1, 4]?
**A.** 1 (3.7%) no. subjects (%)

**Q.** What about the Suicide attempt [1, 4] of the same molecule?
**A.** 0 no. subjects (%)

**Q.** And the Tooth impacted [1, 4]?
**A.** 0 no. subjects (%)

**Q.** And the Toothache [1, 4]?
**A.** 0 no. subjects (%)

**Q.** What about the “Total no. subjects with adverse events” value [1, 4] of the same molecule?
**A.** 13 (48.1%) no. subjects (%)

**Q.** And the Tremor [1, 4]?
**A.** 2 (7.4%) no. subjects (%)

**Q.** What about the “Upper respiratory tract infection” value [1, 4] of the same molecule?
**A.** 1 (3.7%) no. subjects (%)

**Q.** What about the “Viral upper respiratory tract infection” value [1, 4] of the same molecule?
**A.** 0 no. subjects (%)

**Q.** What about the Vomiting [1, 4] of the same molecule?
**A.** 1 (3.7%) no. subjects (%)

**Q.** What about the Vulvovaginal mycotic infection [1, 4] of the same molecule?
**A.** 1 (3.7%) no. subjects (%)

**Q.** And the “1 or more serious TEAE” value [1, 5]?
**A.** 4 (11.4%) no. subjects (%)

**Q.** And the “TEAE (total no. subjects with TEAE)” value [1, 5]?
**A.** 33 (94.3%) no. subjects (%)

**Q.** And the “TEAE leading to death” value [1, 5]?
**A.** 0 no. subjects (%)

**Q.** And the “TEAE leading to drug withdrawn” value [1, 5]?
**A.** 5 (14.3%) no. subjects (%)

**Q.** What about the “Possibly related TEAE” value ([1]; double-blind phase, safety analysis set, relationship possible, probable, very likely) of the same molecule?
**A.** 29 (82.9%) no. subjects (%)

**Q.** And the Cellulitis [1, 6]?
**A.** 0 no. subjects (%)

**Q.** And the Infections and infestations [1, 6]?
**A.** 0 no. subjects (%)

**Q.** What about the Psychiatric disorders [1, 6] of the same molecule?
**A.** 1 (3.7%) no. subjects (%)

**Q.** And the Suicidal ideation [1, 6]?
**A.** 1 (3.7%) no. subjects (%)

**Q.** What about the Suicide attempt [1, 6] of the same molecule?
**A.** 0 no. subjects (%)

**Q.** What about the “Total no. subjects with a serious adverse event” value [1, 6] of the same molecule?
**A.** 1 (3.7%) no. subjects (%)

**Q.** And the Agitation [1, 7]?
**A.** 1 (2.9%) no. subjects (%)

**Q.** What about the Depressive symptom [1, 7] of the same molecule?
**A.** 1 (2.9%) no. subjects (%)

**Q.** What about the Psychiatric disorders [1, 7] of the same molecule?
**A.** 4 (11.4%) no. subjects (%)

**Q.** What about the Suicidal ideation [1, 7] of the same molecule?
**A.** 2 (5.7%) no. subjects (%)

**Q.** What about the “Day 25 sustained response based on MADRS total score: No” value [2] of the same molecule?
**A.** 30 (88.2%) subjects (%)

**Q.** What about the “Day 25 sustained response based on MADRS total score: Yes” value [2] of the same molecule?
**A.** 4 (118%) subjects (%)

**Q.** What about the “MADRS total score, Mean (SD)” value ([3]; Baseline(DB), predose Day 1) of the same molecule?
**A.** 38.5 (6.17)

**Q.** What about the “MADRS total score, Median (Range)” value ([3]; Baseline(DB), predose Day 1) of the same molecule?
**A.** 38.0 (27; 49)

**Q.** What about the “MADRS total score change, Diff. of LS Means (SE) minus placebo” value ([3]; Day 1(DB): 4H) of the same molecule?
**A.** −5.3 (2.10)

**Q.** What about the “MADRS total score change from baseline, Mean (SD)” value (shortened to “MADRS total score change … (SD)”) ([3]; Day 1(DB): 4H, LOCF) of the same molecule?
**A.** −13.4 (9.03)

**Q.** And the “MADRS total score change from baseline, Median (Range)” value (“MADRS total score change … (Range)” for short) ([3]; Day 1(DB): 4H, LOCF)?
**A.** −14.0 (−32; 1)

**Q.** And the “MADRS total score, Median (Range)” value ([3]; Day 1(DB): 4H, LOCF)?
**A.** 23.0 (7; 48)

**Q.** And the “MADRS total score change, Diff. of LS Means (SE) minus placebo” value ([3]; Day 2(DB))?
**A.** −7.2 (2.85)

**Q.** What about the “MADRS total score change … (SD)” value ([3]; Day 2(DB), LOCF) of the same molecule?
**A.** −19.3 (12.02)

**Q.** What about the “MADRS total score change … (Range)” value ([3]; Day 2(DB), LOCF) of the same molecule?
**A.** −19.0 (−41; 1)

**Q.** And the “MADRS total score, Median (Range)” value ([3]; Day 2(DB), LOCF)?
**A.** 18.0 (3; 42)

**Q.** And the “MADRS total score change, Diff. of LS Means (SE) minus placebo” value ([3]; End Point(DB))?
**A.** −4.5 (3.14)

**Q.** What about the “MADRS total score change … (SD)” value ([3]; End Point(DB), LOCF) of the same molecule?
**A.** −26.4 (14.52)

**Q.** And the “MADRS total score change … (Range)” value ([3]; End Point(DB), LOCF)?
**A.** −25.0 (−46; 13)

**Q.** And the “MADRS total score, Median (Range)” value ([3]; End Point(DB), LOCF)?
**A.** 8.0 (0; 44)
